Measured values published in patent publication US20090069230A1, “GDNF-DERIVED PEPTIDES” (The Research Foundation of State University of New York, priority 2007, published 2009).

Test system: C6 glial cells
Experiment: Ca2+ mobilization in GDNF peptide-treated C6 glial cells (Calcium Crimson-AM fluorescence)
Type: cell-based
Conditions: for change in Ca2+ mobilization relative to control samples: external Ca2+ containing buffer, FIG. 6; for change in Ca2+ mobilization relative to control samples / change in fluorescence relative to the control sample: peptide 1 7.0 μM, peptide 2 2.3 μM, peptide 3 0.8 μM; for change in fluorescence relative to the control sample: external Ca2+ free buffer, FIG. 5
Description: We evaluated the ability of the GDNF peptides to activate G-protein associated transmembrane receptors. C6 glial cells were incubated with GDNF peptides, either singly or in combination, and calcium mobilization was monitored as a index of receptor activation.
GDNF peptides were custom synthesized via automated solid-phase methods using FMOC chemistry, HPLC purified, and characterized at the Small Peptide Synthesis Resource of the KECK Facility at Yale University. C6 glial cells were cultured to 80% confluency in the presence of GDNF peptides and loaded with the Ca^2+-sensitive fluorescent indicator dye, Calcium Crimson-AM (5 μM dye in Me2SO) at 37° C. for 20 min. Approximately 10^3 cells were then transferred into a quartz cuvette and the change in intracellular fluorescence was monitored in real time using an ISI Fluorescence spectrophotometer with an excitation wavelength of 590 nm. Emissions were monitored at 615 nm. An increase in fluorescence units was indicative of a rise in internal calcium.
C6 glial cells were cultured as above and incubated in increasing concentrations (0.8 μM; 1.6 μM; 2.4 μM; 3.2 μM and 4.0 μM) of GDNF-derived peptide (FPLPA (SEQ ID NO:4)). Fluorescence was measured according to the method in Example 3.
C6 glial cells were cultured as above and incubated in increasing concentrations (7.0 μM; 14 μM; 21 μM; 28 μM and 35 μM) of GDNF-derived peptide (PPEAPAEDRSL (SEQ ID NO:5)). Fluorescence was measured according to the method in Example 3.
C6 glial cells were cultured as above except that no Ca^2+ was present in the media. Cells were incubated with GDNF-derived peptides according to the experimental design indicated in Table 2 and the combinations in FIG. 5. Fluorescence was measured according to the method in Example 3.
C6 glial cells were cultured according to the method in Example 3. Cells were incubated with GDNF-derived peptides according to the experimental design indicated in Table 2 and the combinations in FIG. 6. Fluorescence was measured according to the method in Example 3.

Substance: ERNRQAAAANPENSRGK (listed as Homo sapiens) [GDNF-derived peptide, 17-mer]
- change in Ca2+ mobilization relative to control samples: decrease in Ca^2+ mobilization
- change in fluorescence relative to the control sample: moderate increases

Substance: FPLPA (listed as Homo sapiens) [GDNF-derived peptide, 5-mer]
- Ca2+ mobilization (fluorescence), dose response (FPLPA at 0.8, 1.6, 2.4, 3.2 and 4.0 μM, FIG. 3): dose-dependent increase in Ca^2+ mobilization at peptide concentrations up to 3.2 μM, followed by a decrease at 4.0 μM
- change in Ca2+ mobilization relative to control samples: decrease in Ca^2+ mobilization
- change in fluorescence relative to the control sample: moderate increases

Substance: PPEAPAEDRSL (listed as Homo sapiens) [GDNF-derived peptide, 11-mer]
- Ca2+ mobilization (fluorescence), dose response (PPEAPAEDRSL at 7.0, 14, 21, 28 and 35 μM, FIG. 4): dose-dependent increase in Ca^2+ mobilization
- change in Ca2+ mobilization relative to control samples: increase in Ca^2+ mobilization
- change in fluorescence relative to the control sample: moderate increases
